This passage reports Ki results from ChEMBL document CHEMBL1153498, “Aerobic oxidation of indolomorphinan without the 4,5-epoxy bridge and subsequent rearrangement of the oxidation product to spiroindolinonyl-C-normorphinan derivative” (Bioorg Med Chem, 2009).

As usually defined, the Ki is a dissociation constant, usually derived from enzyme kinetics or from competition with a known ligand.

The target in assay [1] is Mu-type opioid receptor (Cavia porcellus, UniProt P97266). Put plainly: Displacement of [3H]DAMGO from Hartley guinea pig mu opioid receptor by liquid scintillation counter.
Mu-type opioid receptor, sequence (P97266 whole entry): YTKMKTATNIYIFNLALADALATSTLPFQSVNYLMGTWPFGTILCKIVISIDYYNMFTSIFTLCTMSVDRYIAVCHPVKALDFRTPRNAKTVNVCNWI
Assay [2] is described as follows: Displacement of [3H]NTI from Hartley guinea pig delta opioid receptor by liquid scintillation counter. Details: species or system Cavia porcellus. On the technique in general: Displacement assays read how much labelled ligand stays bound in the presence of the test substance.
For assay [3], the target named is Kappa-type opioid receptor (Cavia porcellus, UniProt P41144). Put plainly: Displacement of […] from Hartley guinea pig kappa opioid receptor by liquid scintillation counter.
Kappa-type opioid receptor, sequence (P41144 whole entry): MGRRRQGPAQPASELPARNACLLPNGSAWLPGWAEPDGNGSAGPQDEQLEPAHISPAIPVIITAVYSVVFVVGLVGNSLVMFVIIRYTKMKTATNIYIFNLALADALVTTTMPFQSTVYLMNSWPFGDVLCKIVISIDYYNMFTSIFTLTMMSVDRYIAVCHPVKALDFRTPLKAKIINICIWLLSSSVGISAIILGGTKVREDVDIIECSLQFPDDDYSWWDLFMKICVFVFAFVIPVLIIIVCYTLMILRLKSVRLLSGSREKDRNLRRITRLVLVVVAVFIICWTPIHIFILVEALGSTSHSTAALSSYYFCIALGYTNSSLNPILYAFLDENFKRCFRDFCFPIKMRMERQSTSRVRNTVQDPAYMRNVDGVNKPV

As to `O=C1c2ccccc2N[C@@]12C[C@]13CCN(CC4CC4)[C@H](Cc4ccc(O)cc41)[C@]3(O)C2`, the Ki in assay [1] came to 0.75 nM; in assay [2], 2.9 nM; in assay [3], 13.4 nM.
`CN1CC[C@]23c4c5ccc(O)c4O[C@H]2C(=O)C2(Cc4ccccc4C2)C[C@@]3(O)[C@H]1C5` [SPIROINDANYLOXYMORPHONE] gave a Ki in assay [2] of 1.4 nM.
